# According to patent publication US12617779B2, “Self degradation-type CDK9 inhibitor prodrug and liposome encapsulating same” (Sumitomo Pharma Co., Ltd., priority 2021, dated 2026):
# Counter-ions that a name gives are not always drawn.
# Columns and labels:
# [1] = Evaluation of conversion rate to active form in BALB/c mouse plasma (Experimental Example 3); assay type: in vitro ADME; settings: 0.2 μmol/L; for Conversion to Alvocidib in BALB/c mouse plasma: Examples up to 60 minutes, Comparative Examples up to 120 minutes
# Summary of the method: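 LC-MS/MS (positive ESI) followed the parent and released Alvocidib during 37° C incubation of 0.2 μmol/L compound in human or BALB/c mouse plasma, sampled at 0/30/60 or 0/60/120 min. Remaining parent is expressed versus the 0-min peak; conversion versus a 0.2 μmol/L Alvocidib standard.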
# [2] = Stability evaluation of liposome formulation under storage conditions (Experimental Example 5); assay type: physicochemical; settings: for Alvocidib content % in liposome formulation: liposome formulation stored at 5° C.; for Change of Alvocidib content in liposome formulation: 5° C.
# Protocol: For Example 1, Example 2, Example 5, Example 6, Example 7, Example 8, Comparative Example 7 and Comparative Example 9, the storage stability of liposome formulation was evaluated by the following method.
# For the liposome formulations of Example 1, Example 2, Example 5, Example 6, Example 7, Example 8, Comparative Example 7, and Comparative Example 9, the liposome outer solution was replaced with 10% sucrose solution or 10 mM tartrate buffer solution/10% sucrose solution (pH 4) using Sephadex G-25 column (PD-10, manufactured by GE Healthcare) or a dialysis cassette (Slide-A-Lyzer G2 Dialysis Cassettes 20K MWCO, manufactured by Thermo Scientific) to remove unencapsulated compound. The liposome formulation was filtered through a 0.22 μm membrane filter, and stored at 5° C. After 0 to 18 months, the Alvocidib content in the liposome formulations of Example 1, Example 2, Example 5, Example 6, Example 7, Example 8, Comparative Example 7 and Comparative Example 9 was determined by HPLC.
# The HPLC measurement conditions are as follows.
# [3] = Pharmacokinetic test, intravenous solution and liposome formulations in mice (Experimental Example 6); assay type: in vivo; settings: female BALB/c mice
# Protocol: This was used as a solution formulation.
# This was used as a liposome formulation.
# Hydrogenated soybean phosphatidylcholine (COATSOME NC-21E, manufactured by NOF CORPORATION, 3.238 g), cholesterol (manufactured by Sigma, 1.160 g) and 1,2-disteroyl-rac-glycero-3-methylpolyoxyethylen 2000 (SUNBRIGHT GS-020, manufactured by NOF CORPORATION, 0.983 g) were dissolved in tert-butyl alcohol (300 mL) warmed to 65° C. The solution was placed in an eggplant flask and frozen in a dry ice-acetone bath, and then the tert-butyl alcohol was removed by evaporation under reduced pressure to give a lipid mixture.
# To the above lipid mixture was added to a 250 mM ammonium sulfate solution (100 mL), and the mixture was warmed to 65° C., and dispersed by a homogenizer (ULTRA-TURRAX, manufactured by IKA) to give a crude liposome dispersion. […] The solution was filtered through a 0.22 μm membrane filter to adjust the total lipid concentration to 75 mM (75 μmol/mL). […] The solution was adjusted to pH 5 to 6 with 1 mol/L aqueous sodium hydroxide solution, warmed in a 65° C. water bath for 3 minutes, and ice-cooled. The liposome outer solution was replaced with 10 mM tartrate buffer solution/10% sucrose solution (pH 4) using a dialysis cassette (Slide-A-Lyzer G2 Dialysis Cassettes 20K MWCO, manufactured by Thermo Scientific), followed by filtration through a 0.22 μm membrane filter to adjust the concentration.
# The solution formulation or liposome formulation was instantly administered intravenously to 7-week-old female BALB/c mice, and the blood was collected over time from the jugular vein without anesthesia up to 24 hours after administration for the solution formulation administration group and up to 72 hours after administration for the liposome formulation administration group. […] The plasma sample was centrifuged, and the concentrations of the test compound and Alvocidib in the obtained supernatant were determined by LC-MS/MS.
SMILES,Blood retention of liposome formulation compared with the corresponding solution formulation [3],Conversion to Alvocidib in BALB/c mouse plasma ([1]; 37° C.),"Residual rate (%) of test compound ([1]; Mouse plasma, 37° C., 0 min) [%]","Residual rate (%) of test compound ([1]; Mouse plasma, 37° C., 30 min) [%]","Residual rate (%) of test compound ([1]; Mouse plasma, 37° C., 60 min) [%]",further results
"C[C@H](N)C(=O)O[C@@H]1CN(C)CC[C@@H]1c1c(O)cc(O)c2c(=O)cc(-c3ccccc3Cl)oc12 [Comparative Example 7, reference compound]",–,–,–,–,–,"Production rate (%) of Alvocidib ([1]; BALB/c, mouse, 0 min): 1%; Residual rate (%) of test compound ([1]; BALB/c, mouse, 0 min): 100%; Production rate (%) of Alvocidib ([1]; BALB/c, mouse, 60 min): 64%; Residual rate (%) of test compound ([1]; BALB/c, mouse, 60 min): 25%; Production rate (%) of Alvocidib ([1]; BALB/c, mouse, 120 min): 79%; Residual rate (%) of test compound ([1]; BALB/c, mouse, 120 min): 10%; Alvocidib content % in liposome formulation ([2]; 0 month): 0.56%; Alvocidib content % in liposome formulation ([2]; 7 months): 23.2%; Change of Alvocidib content in liposome formulation ([2]; at 6 to 7 months): significant increase"
"CN1CC[C@H](c2c(O)cc(O)c3c(=O)cc(-c4ccccc4Cl)oc23)[C@H](OC(=O)[C@@H](N)CO)C1 [Comparative Example 9, reference compound]",–,–,–,–,–,"Production rate (%) of Alvocidib ([1]; BALB/c, mouse, 0 min): 3%; Residual rate (%) of test compound ([1]; BALB/c, mouse, 0 min): 100%; Production rate (%) of Alvocidib ([1]; BALB/c, mouse, 60 min): 33%; Residual rate (%) of test compound ([1]; BALB/c, mouse, 60 min): 70%; Production rate (%) of Alvocidib ([1]; BALB/c, mouse, 120 min): 43%; Residual rate (%) of test compound ([1]; BALB/c, mouse, 120 min): 54%; Alvocidib content % in liposome formulation ([2]; 0 month): 1.17%; Alvocidib content % in liposome formulation ([2]; 6 months): 27.2%; Change of Alvocidib content in liposome formulation ([2]; at 6 to 7 months): significant increase"
"CCN(C[C@@H]1CCCCN1)C(=O)Oc1cc(O)c2c(=O)cc(-c3ccccc3Cl)oc2c1[C@H]1CCN(C)C[C@H]1O [Example 1, 2-(2-chlorophenyl)-5-hydroxy-8-[(3S,4R)-3-hydroxy-1-methylpiperidin-4-yl]-4-oxo-4H-1-benzopyran-7-yl ethyl{[(2S)-piperidin-2-yl]methyl}carbamate ditrifluoroacetate]",higher blood retention,proceeded rapidly,100,24,3,–
"CCN(C[C@H]1CCCCN1)C(=O)Oc1cc(O)c2c(=O)cc(-c3ccccc3Cl)oc2c1[C@H]1CCN(C)C[C@H]1O [Example 2, 2-(2-chlorophenyl)-5-hydroxy-8-[(3S,4R)-3-hydroxy-1-methylpiperidin-4-yl]-4-oxo-4H-1-benzopyran-7-yl ethyl{[(2R)-piperidin-2-yl]methyl}carbamate]",higher blood retention,proceeded rapidly,100,25,4,–
"CN1CC[C@H](c2c(OC(=O)N(C)C[C@@H]3CCCCN3)cc(O)c3c(=O)cc(-c4ccccc4Cl)oc23)[C@H](O)C1 [Example 3, 2-(2-chlorophenyl)-5-hydroxy-8-[(3S,4R)-3-hydroxy-1-methylpiperidin-4-yl]-4-oxo-4H-1-benzopyran-7-yl methyl{[(2S)-piperidin-2-yl]methyl}carbamate]",higher blood retention,proceeded rapidly,100,8,0,–
"CN1CC[C@H](c2c(OC(=O)N(C)C[C@H]3CCCCN3)cc(O)c3c(=O)cc(-c4ccccc4Cl)oc23)[C@H](O)C1 [Example 4, 2-(2-chlorophenyl)-5-hydroxy-8-[(3S,4R)-3-hydroxy-1-methylpiperidin-4-yl]-4-oxo-4H-1-benzopyran-7-yl methyl{[(2R)-piperidin-2-yl]methyl}carbamate]",higher blood retention,proceeded rapidly,100,5,3,–
"CCCN(C[C@@H]1CCCCN1)C(=O)Oc1cc(O)c2c(=O)cc(-c3ccccc3Cl)oc2c1[C@H]1CCN(C)C[C@H]1O [Example 5, 2-(2-chlorophenyl)-5-hydroxy-8-[(3S,4R)-3-hydroxy-1-methylpiperidin-4-yl]-4-oxo-4H-1-benzopyran-7-yl {[(2S)-piperidin-2-yl]methyl}propylcarbamate]",higher blood retention,proceeded rapidly,100,36,8,–
"CCCN(C[C@H]1CCCCN1)C(=O)Oc1cc(O)c2c(=O)cc(-c3ccccc3Cl)oc2c1[C@H]1CCN(C)C[C@H]1O [Example 6, 2-(2-chlorophenyl)-5-hydroxy-8-[(3S,4R)-3-hydroxy-1-methylpiperidin-4-yl]-4-oxo-4H-1-benzopyran-7-yl {[(2R)-piperidin-2-yl]methyl}propylcarbamate]",higher blood retention,proceeded rapidly,100,26,2,–
"CCN(CC1CCCCN1)C(=O)Oc1cc(O)c2c(=O)cc(-c3ccccc3Cl)oc2c1[C@H]1CCN(C)C[C@H]1O (stereo partly drawn) [Example 7, 2-(2-chlorophenyl)-5-hydroxy-8-[(3S,4R)-3-hydroxy-1-methylpiperidin-4-yl]-4-oxo-4H-1-benzopyran-7-yl ethyl[(piperidin-2-yl)methyl]carbamate dihydrochloride]",–,–,–,–,–,Change of Alvocidib content in liposome formulation ([2]; after 15 months): hardly increased
"CN1CC[C@H](c2c(OC(=O)N(C)CC3CCCCN3)cc(O)c3c(=O)cc(-c4ccccc4Cl)oc23)[C@H](O)C1 (stereo partly drawn) [Example 8, 2-(2-chlorophenyl)-5-hydroxy-8-[(3S,4R)-3-hydroxy-1-methylpiperidin-4-yl]-4-oxo-4H-1-benzopyran-7-yl methyl[(piperidin-2-yl)methyl]carbamate]",–,–,–,–,–,Change of Alvocidib content in liposome formulation ([2]; after 18 months): hardly increased
"CN1CC[C@H](c2c(OC(=O)N(CCF)CC3CCCCN3)cc(O)c3c(=O)cc(-c4ccccc4Cl)oc23)[C@H](O)C1 (stereo partly drawn) [Example 11, 2-(2-chlorophenyl)-5-hydroxy-8-[(3S,4R)-3-hydroxy-1-methylpiperidin-4-yl]-4-oxo-4H-1-benzopyran-7-yl (2-fluoroethyl) [(piperidin-2-yl)methyl]carbamate]",higher blood retention,–,–,–,–,–
